One series has as its target CDK2-cycline E (Homo sapiens, UniProt P24941). Nature of the series: Kinase assay (radioactive phosphate incorporation), CDK2-cyclin E. The class given is biochemical. The settings on record: read-out: Kinase Inhibition pIC50 CDK2-cycline E (converted). In a few lines: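 Radiometric filter-binding format: recombinant kinase + substrate, pH 7.4 MOPS buffer with EGTA, DTT, vanadate; 100 μM ATP/[γ-32P]-ATP, 15 mM MgCl2; 30° C; stopped on ice, P81 or GF/C filtration, scintillation read.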

The next series addresses T1, Aurora A kinase (Homo sapiens, UniProt O14965).
T1 construct: purchased
T1 sequence (O14965 1-403): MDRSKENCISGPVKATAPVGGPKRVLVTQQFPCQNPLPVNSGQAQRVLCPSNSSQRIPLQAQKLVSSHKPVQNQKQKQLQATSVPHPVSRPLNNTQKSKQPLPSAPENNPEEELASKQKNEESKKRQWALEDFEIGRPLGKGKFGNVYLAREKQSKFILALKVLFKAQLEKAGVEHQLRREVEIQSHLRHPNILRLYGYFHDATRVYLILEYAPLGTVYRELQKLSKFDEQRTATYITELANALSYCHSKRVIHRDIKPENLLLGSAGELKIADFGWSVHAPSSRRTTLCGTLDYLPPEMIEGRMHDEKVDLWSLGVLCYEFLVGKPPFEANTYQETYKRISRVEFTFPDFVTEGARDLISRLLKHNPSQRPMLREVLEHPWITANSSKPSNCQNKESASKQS
Nature of the series: Aurora-A (human) kinase assay (Kemptide substrate). The class given is biochemical. Particulars: pIC50 is -log(IC50, M); 15 μM ATP; read-out: Kinase Inhibition pIC50 Aurora A kinase (converted). In outline: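 Radiometric filter-binding assay: commercial aurora-A kinase (5-10 ng) with 200 μM Kemptide in MOPS/EDTA pH 7.0, started with 10 mM Mg acetate and 15 μM ATP plus [γ-33P]-ATP. Incubated 40 min at room temperature, stopped with phosphoric acid, incorporated 33P counted by scintillation.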

Each structure is given as a SMILES string.

`Cc1nc(C)c(-c2ccnc(Nc3cccc(CN)c3)n2)s1` [Compound 90, (3-Aminomethyl-phenyl)-[4-(2,4-dimethyl-thiazol-5-yl)-pyrimidin-2-yl]-amine] registered a melting point of 183 to 184 °C. For the same compound, the IC50 on CDK2-cycline E is 398 nM.
With `CCc1cc(-c2nc(C)c(-c3ccnc(Nc4ccc(CNC(C)=O)cc4)n3)s2)ccn1` [Compound 104, N-(4-{4-[2-(2-Ethyl-pyridin-4-yl)-4-methyl-thiazol-5-yl]-pyrimidin-2-ylamino}-benzyl)-acetamide], the melting point lay within 224 to 225 °C. On Aurora A kinase, the IC50 was 63.1 nM.
As for `CC(=O)NCc1cccc(Nc2nccc(-c3sc(-c4ccc(C)nc4)nc3C)n2)c1` [Compound 108, N-(3-{4-[4-Methyl-2-(6-methyl-pyridin-3-yl)-thiazol-5-yl]-pyrimidin-2-ylamino}-benzyl)-acetamide], the melting point is 227 to 229 °C. The IC50 on Aurora A kinase was 2510 nM.
`CC(=O)NCc1cccc(Nc2nccc(-c3sc(-c4ncc(C(F)(F)F)cc4Cl)nc3C)n2)c1` [Compound 109, N-(3-{4-[2-(3-Chloro-5-trifluoromethyl-pyridin-2-yl)-4-methyl-thiazol-5-yl]-pyrimidin-2-ylamino}-benzyl)-acetamide]: the melting point was in the range of 217 to 218 °C. For the same compound, at Aurora A kinase, the IC50 is 631 nM.
The corresponding values for `COCCNS(=O)(=O)c1ccc(Nc2nccc(-c3sc(-c4cccnc4)nc3C)n2)cc1` [Compound 110, N-(2-Methoxy-ethyl)-4-[4-(4-methyl-2-pyridin-3-yl-thiazol-5-yl)-pyrimidin-2-ylamino]-benzenesulfonamide] are 252 to 254 °C and 1000 nM.
With `CC(=O)NCc1cccc(Nc2nccc(-c3sc(NCc4ccccc4)nc3C)n2)c1` [Compound 118, N-{3-[4-(2-Benzylamino-4-methyl-thiazol-5-yl)-pyrimidin-2-ylamino]-benzyl}-acetamide], the melting point lay within 181 to 183 °C. Besides, the IC50 at Aurora A kinase was 501 nM.
`Cc1nc(N(C)c2cc(Cl)cc(Cl)c2)sc1-c1ccnc(Nc2ccc(N3CCOCC3)cc2)n1` [Compound 123, (4-{2-[(3,5-Dichloro-phenyl)-methyl-amino]-4-methyl-thiazol-5-yl}-pyrimidin-2-yl)-(4-morpholin-4-yl-phenyl)-amine] displayed a melting point of 216 to 218 °C. In addition, the IC50 at Aurora A kinase was 50.1 nM.
Compound `Cc1nc(N(C)c2ccc(Cl)cc2)sc1-c1ccnc(Nc2ccc(N3CCOCC3)cc2)n1` [Compound 124, (4-{2-[(4-Chloro-phenyl)-methyl-amino]-4-methyl-thiazol-5-yl}-pyrimidin-2-yl)-(4-morpholin-4-yl-phenyl)-amine] gave a melting point of 245 to 246 °C. At Aurora A kinase, the IC50 was 200 nM.
Taken in the same sequence, the figures for `CC(=O)NCc1cccc(Nc2nccc(-c3sc(N(C)c4cc(Cl)cc(Cl)c4)nc3C)n2)c1` [Compound 125, N-[3-(4-{2-[(3,5-Dichloro-phenyl)-methyl-amino]-4-methyl-thiazol-5-yl}-pyrimidin-2-ylamino)-benzyl]-acetamide] were 213 to 214 °C and 2510 nM.
Take `Cc1nc(-c2cccnc2)sc1-c1ccnc(Nc2cc(Cl)c(N3CCOCC3)c(Cl)c2)n1` [Compound 126, (3,5-Dichloro-4-morpholin-4-yl-phenyl)-[4-(4-methyl-2-pyridin-3-yl-thiazol-5-yl)-pyrimidin-2-yl]-amine]: the melting point lay within 276 to 278 °C. The IC50 at Aurora A kinase is 251 nM.
In turn, `Cc1nc(N(C)c2cc(Cl)cc(Cl)c2)sc1-c1ccnc(Nc2ccc(N3CCOCC3)c(Cl)c2)n1` [Compound 128, (3-Chloro-4-morpholin-4-yl-phenyl)-(4-{2-[(3,5-dichloro-phenyl)-methyl-amino]-4-methyl-thiazol-5-yl}-pyrimidin-2-yl)-amine] showed a melting point of 224 to 225 °C. Besides, the IC50 at Aurora A kinase is 100 nM.
`CC(=O)NCc1cccc(Nc2nccc(-c3sc(-c4cccs4)nc3C)n2)c1` [Compound 130, N-{3-[4-(4-Methyl-2-thiophen-2-yl-thiazol-5-yl)-pyrimidin-2-ylamino]-benzyl}-acetamide]: the melting point fell in the range of 223 to 225 °C. At Aurora A kinase, the IC50 was 158 nM. Moreover, at CDK2-cycline E, the IC50 is 794 nM.
`Cc1nc(-c2nc(C)c(-c3ccnc(Nc4ccc(N5CCOCC5)cc4)n3)s2)cs1` [Compound 135, [4-(4,2′-Dimethyl-[2,4′]bithiazolyl-5-yl)-pyrimidin-2-yl]-(4-morpholin-4-yl-phenyl)-amine] showed a melting point of 262 to 263 °C. Besides, the IC50 at Aurora A kinase was 1260 nM.
Taken in the same sequence, the figures for `CC(=O)N1CCN(c2ccc(Nc3nccc(-c4sc(-c5ccc(N6CCOCC6)cc5)nc4C)n3)cc2)CC1` [Compound 148, 1-[4-(4-{4-[4-Methyl-2-(4-morpholin-4-yl-phenyl)-thiazol-5-yl]-pyrimidin-2-ylamino}-phenyl)-piperazin-1-yl]-ethanone] were 250 to 252 °C and 316 nM.
Take `CCNc1nc(C)c(-c2ccnc(Nc3ccc(N4CCOCC4)c(OC)c3)n2)s1` [Compound 157, [4-(2-Ethylamino-4-methyl-thiazol-5-yl)-pyrimidin-2-yl]-(3-methoxy-4-morpholin-4-yl-phenyl)-amine]: the melting point lay within 224 to 226 °C. Also, the IC50 on Aurora A kinase was 25.1 nM. Moreover, the IC50 at CDK2-cycline E was 251 nM.
Consider `COc1cc(Nc2nccc(-c3sc(NCCc4ccccc4)nc3C)n2)cc(OC)c1` [Compound 159, (3,5-Dimethoxy-phenyl)-[4-(4-methyl-2-phenethylamino-thiazol-5-yl)-pyrimidin-2-yl]-amine], for which the melting point is 201 to 202 °C. Besides, the IC50 at Aurora A kinase was 794 nM.
`CCNc1nc(C)c(-c2ccnc(Nc3cc(OC)cc(OC)c3)n2)s1` [Compound 160, (3,5-Dimethoxy-phenyl)-[4-(2-ethylamino-4-methyl-thiazol-5-yl)-pyrimidin-2-yl]-amine]: the melting point was 235 to 237 °C. Further, the IC50 at Aurora A kinase is 794 nM.
With `CC(=O)N1CCN(c2ccc(Nc3nccc(-c4sc(Nc5ccccc5)nc4C)n3)cc2)CC1` [Compound 172, 1-(4-{4-[4-(4-Methyl-2-phenylamino-thiazol-5-yl)-pyrimidin-2-ylamino]-phenyl}-piperazin-1-yl)-ethanone], the melting point was in the range of 245 to 246 °C. In addition, on Aurora A kinase, the IC50 was 251 nM.
Regarding `Cc1nc(Nc2ccccc2)sc1-c1ccnc(Nc2ccc(N3CCN(Cc4ccccc4)CC3)cc2)n1` [Compound 176, [4-(4-Benzyl-piperazin-1-yl)-phenyl]-[4-(4-methyl-2-phenylamino-thiazol-5-yl)-pyrimidin-2-yl]-amine], the melting point is 227 to 229 °C. The IC50 at Aurora A kinase was 6310 nM.
Take `Cc1nc(-c2cccnc2)sc1-c1ccnc(Nc2ccc3c(c2)OCO3)n1` [Compound 177, Benzo[1,3]dioxol-5-yl-[4-(4-methyl-2-pyridin-3-yl-thiazol-5-yl)-pyrimidin-2-yl]-amine]: the melting point lay in the range of 187 to 188 °C. In addition, the IC50 at Aurora A kinase is 2000 nM.
The compound `Cc1nc(-c2cccnc2)sc1-c1ccnc(Nc2ccc(N3CCCC3)cc2)n1` [Compound 198, [4-(4-Methyl-2-pyridin-3-yl-thiazol-5-yl)-pyrimidin-2-yl]-(4-pyrrolidin-1-yl-phenyl)-amine] returned a melting point of 212 to 214 °C. For the same compound, the IC50 at Aurora A kinase is 2000 nM.
`Cc1nc(C)c(-c2ccnc(Nc3ccc(N4CCCC4)cc3)n2)s1` [Compound 199, [4-(2,4-Dimethyl-thiazol-5-yl)-pyrimidin-2-yl]-(4-pyrrolidin-1-yl-phenyl)-amine] registered a melting point of 192 to 193 °C. Also, the IC50 on Aurora A kinase was 631 nM.
The corresponding values for `Cc1nc(-c2cccnc2)sc1-c1ccnc(Nc2ccc(N3CCSCC3)cc2)n1` [Compound 204, [4-(4-Methyl-2-pyridin-3-yl-thiazol-5-yl)-pyrimidin-2-yl]-(4-thiomorpholin-4-yl-phenyl)-amine] are 191 to 193 °C and 501 nM.
As for `Cc1nc(C)c(-c2ccnc(Nc3ccc(N4CCCCC4)c(C)c3)n2)s1` [Compound 205, [4-(2,4-Dimethyl-thiazol-5-yl)-pyrimidin-2-yl]-(3-methyl-4-piperidin-1-yl-phenyl)-amine], the melting point is 159 to 160 °C. In addition, the IC50 on Aurora A kinase was 398 nM.
In turn, `CCNc1nc(C)c(-c2ccnc(Nc3ccc(N4CCCCC4)c(C)c3)n2)s1` [Compound 207, [4-(2-Ethylamino-4-methyl-thiazol-5-yl)-pyrimidin-2-yl]-(3-methyl-4-piperidin-1-yl-phenyl)-amine] had a melting point of 213 to 214 °C. At Aurora A kinase, the IC50 is 501 nM.
With `Cc1cc(Nc2nccc(-c3sc(-c4cccnc4)nc3C)n2)ccc1N1CCCCC1` [Compound 208, (3-Methyl-4-piperidin-1-yl-phenyl)-[4-(4-methyl-2-pyridin-3-yl-thiazol-5-yl)-pyrimidin-2-yl]-amine], the melting point was 200 to 201 °C. Also, the IC50 on Aurora A kinase is 1000 nM.

Broadly, the melting point is the temperature, or range, at which the solid turns liquid.

Source of the values: US20090137572A1, “2-substituted-4-heteroaryl-pyrimidines useful for the treatment of proliferative disorders” (priority 2004, published 2009).
